In US20240201203A1, “COMPOSITIONS AND METHODS FOR TREATING INDIVIDUALS WHO HAVE ONCOGENE-NEGATIVE CANCER” (priority 2021, published 2024):

What was measured:
[1] = test system: Nf1, Rasa1, and Pten-mutant lung adenocarcinoma cell-lines; assay: Clonogenic growth assay and Loewe synergy, mouse oncogene-negative cell lines; format: cell-based; conditions: three mouse cell lines, various doses, four days, crystal violet
Description: (§1) Cell lines were generated from tumors initiated in Trp53^flox/flox; TC BL6 mice four months after transduction with Lenti-sgNf1-sgRasa1-sgPten/Cre. After dissociation of tumors (described below), cells were cultured in the regular media.
For clonogenic assays, cells were seeded in triplicate into 24-well plates (4000 cells per well) and allowed to adhere overnight in regular growth media. Cells were then cultured in the absence or presence of the drug as indicated on each figure panel in complete media for 4 days. Growth media with or without drugs was replaced every 2 days. The remaining cells were stained with 0.5% crystal violet in 20% methanol and photographed using a digital scanner. Relative growth was quantified by densitometry after extracting crystal violet from the stained cells using 100% methanol.
Drug synergism was analyzed using SynergyFinder (https://synergyfinder.fimm.fi) web application. The degree of combination synergy, or antagonism, is quantified by comparing the observed drug combination response against the expected response, calculated using Loewe's model that assumes no interaction between drugs.

RAS and PI3K signaling = assay: Immunoblot of oncogene-negative cell lines treated with drugs; format: cell-based, mouse; conditions: 3 oncogene-negative cell lines, 10 uM, 24 hours
Description: as §1
For apoptosis and proliferation assays, 3×10^5 cells were seeded into 6-well plates and allowed to adhere overnight in regular growth media and cultured in the presence or absence 10 uM of Capivasertib, RMC-4550, or a combination of both drugs. After 24 hours, the protein was extracted using RIPA lysis buffer (Thermo Fisher Scientific, 89900) and proteinase/phosphatase inhibitor cocktail (Thermo Fisher Scientific, 78442). Protein concentration was measured using BCA protein assay kit (Thermo Fisher Scientific, 23250). Proteins (30 ug from each sample) were separated by SDS-PAGE and immunoblotted and transferred to polyvinyl difluoride (PVDF) membranes (BioRad, 162-0177) according to standard protocols. Membranes were immunoblotted with antibodies against phosphor-ERK (Cell Signaling Technology, 4370), ERK (Cell Signaling Technology, 9102), phosphor-AKT (Thermo Fisher Scientific, 44-621G), AKT (Cell Signaling Technology, 4691), phospho-S6 (Cell Signaling Technology, 4858), S6 (Cell Signaling Technology, 2217), and HSP90 (BD Bioscience, 610418). […]

[2] = test system: Nf1, Rasa1, and Pten mutant oncogene-negative lung tumors; assay: Drug efficacy study in TC mice with oncogene-negative lung tumors (Tuba-seq, imaging, histology); format: in vivo, mouse; conditions: tumors from sgNf1/sgRasa1/sgPten vectors, capivasertib 100 mg/kg, RMC-4550 30 mg/kg, gavage, two weeks, 3.5 months after tumor initiation, vs vehicle
Description: For drug efficacy studies, TC mice (8-12 weeks old) were divided into 4 groups randomly. They received the vehicle, capivasertib (100 mg/kg, Med Chem Express), RMC-4550 (30 mg/kg, Med Chem Express), or a combination of both dissolved in 10% DMSO, 40% PEG, 5% Tween 80, and 45% PBS through a gavage needle. Mice were treated daily with drugs for eight days, and the treatment was stopped for two days for recovery, and it continued for two more days before the tissue harvest.
Tumors were initiated by intratracheal delivery of pooled or individual Lenti-sgRNA/Cre vectors. Barcoded Lenti-sgRNA/Cre vectors within each viral pool are indicated in each figure. […]
For DNA extraction from single dissected tumors to generate libraries for Tuba-seq, targeted sequencing of selected oncogenes, and whole-exome sequencing, we used Qiagen AllPrep DNA/RNA Micro kit. […] Three cell lines (100,000 to 500,000 cells each) were added to each mouse lung sample before lysis to enable the calculation of the absolute number of neoplastic cells in each tumor from the number of sgID-BC reads. […] The concentration and quality of the purified libraries were determined using the Agilent High Sensitivity DNA kit (Agilent Technologies, 5067-4626) on the Agilent 2100 Bioanalyzer (Agilent Technologies, G2939BA). […]
The FASTQ files were parsed to identify the sgID and barcode (BC) for each read. […]

Cc1nc(N2CCC3(CC2)CO[C@@H](C)[C@H]3N)c(CO)nc1-c1cccc(Cl)c1Cl [RMC-4550]
overall growth of oncogene-negative cell lines [1]: decreased the overall growth of three oncogene-negative RAS/PI3K cell lines in a dose-dependent manner
RAS signaling (immunoblot) (RAS and PI3K signaling): reduced
total tumor burden (Tuba-seq analysis) [2]: reduced the total tumor burden significantly

NC1(C(=O)N[C@@H](CCO)c2ccc(Cl)cc2)CCN(c2ncnc3[nH]ccc23)CC1 [capivasertib]
overall growth of oncogene-negative cell lines [1]: decreased the overall growth of three oncogene-negative RAS/PI3K cell lines in a dose-dependent manner
PI3K signaling (immunoblot) (RAS and PI3K signaling): reduced
total tumor burden (Tuba-seq analysis) [2]: ineffective
